Test system: C. formosanus workers and soldiers
Test: Treated filter paper as the sole food source
Type: in vivo, Coptotermes formosanus
Conditions: for Percent survival: colonies C and WB combined
Description: To assay the effect of 2′-acetonaphthone on termites when added to a sole food source, acute and cumulative toxicities of 2′-acetonaphthone-treated filter paper (Whatman #2) and balsa wood (Ochroma lagopus Swartz) slices (2.3 cm×4.0 cm) were evaluated. Seven concentrations (0, 1, 10, 50, 100, 500, and 1000 mg/l) were prepared in 100 ml ethanol. Six filter papers and six wood slices were soaked in each concentration for 4 h; control filter papers and wood slices were soaked only in ethanol. After treatment, the food sources were kept overnight at ambient conditions for solvent evaporation. Eighty-four plastic containers (5.5 cm diameter×3.7 cm height) were provided with 22 g of wetted sand (20 g sand (fine blasting sand #4, Cement Products Inc., Baton Rouge, La.) mixed with 2 ml DDH2O). Then either a filter paper or a wood slice was separately placed to fit on the surface of the wetted sand and wetted with DDH2O (250 μl). Into each container, fifty workers and 20 soldiers were placed on the surface of the filter paper or wood slice. For each concentration and food sourse, three replicates received termites from colony C, and three replicates received termites from colony WB. The containers were covered and incubated for 10 days at 27.4° C. and 70% RH. Containers were monitored everytwo days to ensure suitable moisture. On days 1, 5 and 10, the number of living workers and soldiers were counted. An average percent survival was calculated for each treatment. (See Tables 2 and 3).

CC(=O)c1ccc2ccccc2c1 [2′-acetonaphthone]
Percent survival (filter paper 1 mg/l, Day 1, Soldier): 84.17 ± 9.26 a %
Percent survival (filter paper 1 mg/l, Day 1, Worker): 87.67 ± 5.83 a %
Percent survival (filter paper 1 mg/l, Day 5, Soldier): 58.33 ± 10.14 a %
Percent survival (filter paper 1 mg/l, Day 5, Worker): 73.0 ± 8.24 a %
Percent survival (filter paper 1 mg/l, Day 10, Soldier): 60.83 ± 13.07 a %
Percent survival (filter paper 1 mg/l, Day 10, Worker): 55.67 ± 8.98 a %
Percent survival (filter paper 10 mg/l, Day 1, Soldier): 80.0 ± 9.49 a %
Percent survival (filter paper 10 mg/l, Day 1, Worker): 84.0 ± 4.95 a %
Percent survival (filter paper 10 mg/l, Day 5, Soldier): 56.67 ± 12.49 a %
Percent survival (filter paper 10 mg/l, Day 5, Worker): 66.67 ± 9.71 ab %
Percent survival (filter paper 10 mg/l, Day 10, Soldier): 50.0 ± 12.91 a %
Percent survival (filter paper 10 mg/l, Day 10, Worker): 53.67 ± 12.92 a %
Percent survival (filter paper 50 mg/l, Day 1, Soldier): 72.50 ± 11.46 a %
Percent survival (filter paper 50 mg/l, Day 1, Worker): 80.33 ± 9.76 a %
Percent survival (filter paper 50 mg/l, Day 5, Soldier): 42.50 ± 9.56 a %
Percent survival (filter paper 50 mg/l, Day 5, Worker): 68.33 ± 11.56 ab %
Percent survival (filter paper 50 mg/l, Day 10, Soldier): 35.83 ± 8.41 a %
Percent survival (filter paper 50 mg/l, Day 10, Worker): 55.0 ± 12.07 a %
Percent survival (filter paper 100 mg/l, Day 1, Soldier): 73.33 ± 5.87 a %
Percent survival (filter paper 100 mg/l, Day 1, Worker): 80.0 ± 6.68 a %
Percent survival (filter paper 100 mg/l, Day 5, Soldier): 33.33 ± 11.53 a %
Percent survival (filter paper 100 mg/l, Day 5, Worker): 48.33 ± 10.33 b %
Percent survival (filter paper 100 mg/l, Day 10, Soldier): 17.50 ± 5.74 b %
Percent survival (filter paper 100 mg/l, Day 10, Worker): 40.67 ± 9.98 a %
Percent survival (filter paper 500 mg/l, Day 1, Soldier): 14.17 ± 5.23 b %
Percent survival (filter paper 500 mg/l, Day 1, Worker): 18.33 ± 6.60 b %
Percent survival (filter paper 500 mg/l, Day 5, Soldier): 0.0 ± 0.0 b %
Percent survival (filter paper 500 mg/l, Day 5, Worker): 0.0 ± 0.0 c %
Percent survival (filter paper 500 mg/l, Day 10, Soldier): 0.0 ± 0.0 c %
Percent survival (filter paper 500 mg/l, Day 10, Worker): 0.0 ± 0.0 b %
Percent survival (filter paper 1000 mg/l, Day 1, Soldier): 1.67 ± 1.67 b %
Percent survival (filter paper 1000 mg/l, Day 1, Worker): 6.67 ± 6.67 b %
Percent survival (filter paper 1000 mg/l, Day 5, Soldier): 0.0 ± 0.0 b %
Percent survival (filter paper 1000 mg/l, Day 5, Worker): 0.0 ± 0.0 c %
Percent survival (filter paper 1000 mg/l, Day 10, Soldier): 0.0 ± 0.0 c %
Percent survival (filter paper 1000 mg/l, Day 10, Worker): 0.0 ± 0.0 b %
concentration acutely toxic when applied to a sole food source (sole food source): 0.1 % (wt/v)
concentration at which termites showed decreased survival (sole food source impregnated (filter paper or wood slice)): 1000 mg/L
